This is an account of results in US20090155179A1, “KINETIC BIOMARKER FOR QUANTIFICATION OF LYMPHOPROLIFERATION, CLONAL EXPANSION, RECRUITMENT AND TRAFFICKING IN LYMPHOID TISSUES AND OF THE IN VIVO ACTIONS OF ANTIGENS AND MODULATING THEREON” (KINEMED, INC., priority 2005, published 2009).

Entries after “also recorded” stand apart in the source; their conditions may differ. Where only a bound is given, the exact number is not on record here.

The nature of data set [1]: tolerability of maintained 2H2O body water enrichment. Format: in vivo. The following applies: 1-10% of total body water labeled, weeks or months, humans (>100 people) and experimental animals. An excerpt:
Relatively high body water enrichments of ^2H2O (e.g., 1-10% of the total body water is labeled) may be achieved relatively inexpensively using the techniques of the invention. […] This finding in a large number of human subjects (>100 people) is contrary to previous concerns about vestibular toxicities at high doses of ^2H2O. One of the Applicants has discovered that as long as rapid changes in body water enrichment are prevented (e.g., by initial administration in small, divided doses), high body water enrichments of ^2H2O can be maintained with no toxicities. For example, the low expense of commercially available ^2H2O allows long-term maintenance of enrichments in the 1-5% range at relatively low expense.

Data set [2] concerns PLN cells (draining popliteal lymph node lymphocytes). Description: kinetic PLNA (popliteal lymph node assay) with continuous 2H2O labeling after footpad immunization. Format: in vivo, Balb/c mice. The following applies: for PLN cellularity under drug treatment: 5 μg KLH or PBS, Rap 2 mg/kg/d p.o. The method, then: PLNA and heavy water labeling. The kinetic PLNA was performed as follows, except as noted in the Figure legends. In all experiments, groups of n=4 or 5 Balb/c mice were immunized subcutaneously on day 0 in the left hind footpad (toe to heel direction) with 20 μl PBS or drug vehicle (negative control group), or with 20 μl PBS containing 5-25 μg KLH (positive control group). Heavy water labeling was initiated on day 0 by intraperitoneal administration of 99.9% ^2H2O containing 0.9% w/v NaCl at 35 ml/kg body weight, and animals were maintained on 8% ^2H2O in drinking water for the remainder of the study. At day 7 post immunization, animals were bled into heparinized tubes by cardiac puncture under isoflurane anesthesia and sacrificed by cervical dislocation. The blood was centrifuged at 1500×g for 10 minutes, and heparinized plasma was stored at −20° C. for determination of body water ^2H enrichment; a second aliquot was frozen for serologic studies. Bone marrow was harvested from the right hindlimb femur by flushing the bone with 1 ml PBS using a 25 ga cannula and centrifuging the tissue and cell suspension at 450×g for 5 min.
Analysis of PLN cells. Draining PLN were dissected from the left hind limb, mechanically dispersed, using tweezers, into ice-cold RPMI 1640 containing 10% fetal bovine serum and antibiotics. The cell suspensions were thoroughly mixed and strained through a 35 μm cell strainer fitted to a 12×75 mm polystyrene tube (BD Biosciences, San Jose, Calif.) and centrifuged at 450×g at 4° C. for 5 min. Cells were suspended in 100 μl staining buffer (PBS containing 0.5% w/v bovine serum albumin, 2 mM EDTA, and 0.05% sodium azide), blocked by addition of 20 μl mg/ml murine IgG (Sigma) and 2 μl anti-CD16/CD32 mAb (Miltenyi Biotec, City/State) at 4° C. for 15 min., and stained with anti-CD3-FITC and anti-B220-PE/Cy5 (eBioscience, 1 μl each) for 15 min. The samples were diluted to 900 μl with staining buffer, mixed thoroughly with 100 μl Flow-Count fluorospheres, and analyzed on an Epics XL flow cytometer (Beckman Coulter, City/State) for determination of absolute lymph node cell counts and percentages and absolute counts of T cells, B cells, and non-T/B cells. Absolute cell counts per lymph node were determined as:
Analysis of ^2H incorporation into purine dR. DNA was extracted from samples of bone marrow, total PLN cells, or sorted T and B cells using DNEasy kits (Qiagen, Valencia, Calif.) according to the manufacturer's instructions. Aliquots (0.5 μg) were hydrolyzed to […] by overnight incubation at 37° C. with 0.5 units nuclease SI (Sigma) and 0.25 units potato acid phosphatase (Calbiochem) in 75 mM sodium acetate buffer, pH 4.8, containing 0.15 mM ZnSO4. […] The hydroxyl groups were acetylated using acetic anhydride and N-methylimidazole, and the resultant pentafluorobenzyl […] derivative was extracted into dichloromethane, dried under vacuum, and redissolved in 100 μl ethyl acetate. The derivative was analyzed by gas chromatography/mass spectrometry (GC/MS) as described supra, with selected ion monitoring at m/z 435 (for the parent mass isotopomer, M0) and 436 (M1). After integration of the M0 and M1 peak area using ChemStation software, the excess mole fraction of the M1 mass isotopomer (EM1) was calculated as: […]
Calculations and statistics. Fractional turnover of PLN cell populations (f, the fraction of total, T, or B cells that have divided during the labeling period, representing clonal expansion, FIG. 1) was calculated as:
f=EM1observed/EM1maximal,
where EM1maximal was represented, in most experiments, by bone marrow DNA from the same animal, or assumed to equal 0.14. Alternatively, for mice labeled for less than four days, EM1maximal was represented by 0.9× the EMI value predicted from the animal's body water ^2H enrichment (the factor of 0.9 represents dilution by salvage).

A further data set has as its system PLN cells. Description: kinetic PLNA with 2H2O labeling after KLH immunization in C57BI/6 mice. Format: in vivo, C57BI/6 (B6) mice. The following applies: B6 mice.
The test system of data set [3] is xenografted human tumor cells. Description: f of xenografted human tumor cells in mice. Format: in vivo. The following applies: 10 mg/kg/d, i.p.; previously seen.
Setting [4] is: day 7, Dex 0.3 mg/kg/d p.o., Tax 10 mg/kg/d i.p., OHU 500 mg/kg/d i.p.

For the compound `[2H]O[2H]` [^2H2O], the “toxicity of maintained body water enrichment” value in data set [1] is listed as “without any evidence of toxicity”.

With `NC(=O)NO` [hydroxyurea], the “PLN cellularity under drug treatment” value in data set [2] (setting [4]) is “modest and variable effects”. Besides, the “f of total PLN cells after KLH stimulation” value in data set [2] (5 μg KLH, daily drug to day 7: Rap 2 mg/kg/d p.o., OHU 500 mg/kg/d i.p.) is “strongly inhibited”. The “f of total PLN cells at baseline” value in data set [2] (sham-immunized (PBS), daily drug to day 7: Rap 2 mg/kg/d p.o., OHU 500 mg/kg/d i.p.) is reported as “strongly inhibited”.

As to keyhole limpet hemocyanin [KLH], the “f in sorted B cells and total T cells” value in the data set with PLN cells (200 μg KLH, day 7) is listed as “Neither B cells nor T cells showed a substantial increase”. For the same compound, the “f in PLN cells after KLH immunization, day 7” value in the data set on PLN cells (2-200 μg KLH, day 7) was “no significant increase; also recorded: lower”. Further, the “cellularity in PLN” value in the data set with PLN cells (7 days after KLH immunization) is recorded as “dose-dependent”. Also, the “f in PLN cells, time course” value with PLN cells (KLH, day 4) was “transient increase”. In addition, the “proliferation response to low doses of KLH” value in data set [2] (Balb/c, 0.2-2 μg KLH) is “increase in f without a change in PLN cellularity”. Besides, the “proliferation response to higher doses of KLH” value in data set [2] (Balb/c, 5-25 μg KLH or with incomplete Freund's adjuvant) is on record as “f reached a plateau”. Further, the “increase of PLN cellularity” value in data set [2] (Balb/c, KLH doses that increased cellularity) is given as 2- to 3 fold. Besides, the “antigen dose at which cellularity was maximal” value in data set [2] (Balb/c, KLH in PBS, day 7) is given as “around 25 μg”. For the same compound, in data set [2] (Balb/c, KLH, as little as), the “antigen dose at which f was maximally increased” value is listed as 600 ng. Further, the “CD4+ T cell f” value in data set [2] (Balb/c, KLH-immunized, day 7, other attempts, vs. 7.5%±1.3% without KLH, p=0.017) is given as 11.3%±2.1. The “proliferating cells as share of cells in the PLN” value in data set [2] (Balb/c, any KLH dose, day 7) is on record as at most 20%. Besides, in data set [2] (Balb/c, footpad immunization, day 7), the “f in total PLN cells after immunization” value is reported as “elevated to a dose-independent plateau; also recorded: significant; also recorded: increased f”. The “f in PLN B cells after immunization” value in data set [2] (Balb/c, sorted B cells, day 7) was “pronounced increase; also recorded: Significant KLH effect; also recorded: significantly increased”. For the same compound, the “f in CD4+ T cells after immunization” value in data set [2] (Balb/c, sorted CD4+ T cells, day 7) is recorded as “smaller increase”. For the same compound, the “f in CD8+ T cells after immunization” value in data set [2] (Balb/c, sorted CD8+ T cells, day 7) is listed as “not in CD8^+ T cells”. Further, in data set [2] (Balb/c, sorted T cells, day 7), the “f in total T cells after immunization” value is listed as “smaller increase; also recorded: Significant KLH effect”.

As to `CC(=O)O[C@H]1C(=O)[C@@]2(C)[C@H]([C@H](OC(=O)c3ccccc3)[C@]3(O)C[C@H](OC(=O)[C@H](O)[C@@H](NC(=O)c4ccccc4)c4ccccc4)C(C)=C1C3(C)C)[C@]1(OC(C)=O)CO[C@@H]1C[C@@H]2O` [paclitaxel], the “f of xenografted human tumor cells in mice” value in data set [3] is on record as “strong inhibition”. Further, the “PLN cellularity under drug treatment” value in data set [2] (setting [4]) was “reduced”. For the same compound, the “f (clonal expansion) of PLN cells under drug treatment” value in data set [2] (stimulation not specified, Tax 10 mg/kg/d i.p., Dex 0.3 mg/kg/d p.o., day 7) is reported as “did not affect f”.

With `O=[N+]([O-])c1ccc(Cl)c([N+](=O)[O-])c1` [DNCB, 2,4-dinitrochlorobenzene], in data set [2] (Balb/c, DNCB in PBS:DMSO, day 7), the “dose above which f reached a plateau” value is “above 100 μg”.
